Results: patent publication US10450314B2, “Pteridine derivatives as modulators of ROR gamma” (Boehringer Ingelheim International GmbH, priority 2015, dated 2019)
pIC50: −log10 of the molar value.

What was measured:
[1] = Human liver microsome (HLM) metabolic stability assay; type: in vitro ADME; conditions: human liver microsomes, 1 uM compound, 37° C., 60 min; % hepatic blood flow
Method: Assessment of Metabolic Stability
The 5 time point, high-throughput human liver microsome (HLM) metabolic stability assay is designed to determine in vitro compound metabolism. Compounds are incubated with HLMs at a concentration of 1 uM, at 37° C., for a total of 60 min. The percent of compound remaining at 5, 15, 30, and 60 min is used to calculate the t1/2 (min), CLint (mL/min/kg), CLh (mL/min/kg), and % Qh. The assay is based on a 96-well format and can accommodate up to 92 compounds per plate (n=1).
Using the 96-well multi-channel head, the Biomek FX, equipped with a Peltier heating block/shaker, is programmed to accomplish the following steps: • 1. Pipette 175 uL of 1.15 mg/mL microsomes into each of the 96 conical inserts (Analytical Sales and Products, catalog number 96PL05) that fit into the plate of the Peltier heating block/shaker (the incubation plate) • 2. Add 5 uL of compounds from the assay plate to the microsomes and shake the mixture at 600 rpm at 42.1° C. for 10 min (a setting of 42.1° C. on the Peltier is required for the samples to incubate at 37° C.) • 3. After 10 min, prompt the user to add the NADPH plate to the deck and add 20 uL from the NADPH plate to the incubation plate to start the reaction • 4. Add 215 uL of 100%, cold acetonitrile containing an internal standard(s) to a 0 minute, 5 minute, 15 minute, 30 minute, and 60 minute “quench” plate • 5. At 0 min, 5 min, 15 min, 30 min, and 60 min into the incubation, aspirate 12 uL from the incubation mixture and add it to the quench solution to stop the reaction • 6. Add 185 uL HPLC grade water to each well of the 0, 5, 15, 30 and 60 minute quench plates to dilute compounds to the appropriate concentration for the mass spectrometer
After all time points are collected, the quench plates are sealed with 96-well pierceable plate mats or heat sealing foil and centrifuged at 3000 rpm for 15 min to pellet the microsomes.
The plates are analyzed using LC/MS/MS with electron spray ionization (ESI) and the previously determined MRM transitions. The LC method includes the following parameters:
Using an Excel template in Activitybase, the peak areas corresponding to 5, 15, 30 and 60 min are compared to the peak area at 0 min to calculate the percent of remaining compound using the following equation:
Percent compound remaining=(AUC at Time t min/AUC at Time 0 min)×100 where t=0, 5, 15, 30 or 60 min.
Time (min) is plotted against the natural logarithm (Ln) of the percent compound remaining to determine the slope. The slope is used to calculate t1/2 (min) using the equation, t1/2=0.693/slope.
Clint, Intrinsic Clearance

RORγ = target: T1, RORγ (Homo sapiens, UniProt P51449); experiment: RORγ Reporter Gene Assay (RGA), luciferase transactivation in transiently transfected HEK 293 cells; type: cell-based; conditions: HEK 293 cells cotransfected with pGL4.3 luc2P/GAL4UAS and pBIND Gal4DBD hRORC LBD; 20-24 h incubation
T1 construct: expressed in transfected cells; host or cells: HEK 293 cells, transiently cotransfected with pGL4.3 luc2P/GAL4UAS/Hygro reporter
T1 sequence (P51449 269-508 limits assumed): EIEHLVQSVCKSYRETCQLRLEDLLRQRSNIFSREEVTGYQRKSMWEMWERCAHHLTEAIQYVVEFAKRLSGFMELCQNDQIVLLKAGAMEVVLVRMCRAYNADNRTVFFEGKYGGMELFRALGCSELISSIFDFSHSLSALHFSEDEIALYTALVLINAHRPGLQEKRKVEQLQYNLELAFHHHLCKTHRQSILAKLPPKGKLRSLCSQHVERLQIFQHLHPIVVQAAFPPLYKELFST
Method: Reporter Gene Assay (RGA)
A nuclear receptor transactivation assay is performed to quantitate the ability of test compounds to inhibit RORγ transactivation of a luciferase reporter. A similar assay is described in: Khan et al., Bioorganic & Medicinal Chemistry Letters 23 (2013), 532-536. The system uses transiently transfected HEK 293 cells cotransfected with two plasmids (pGL4.3, luc2P/GAL4UAS/Hygro, and pBIND, Gal4DBD hRORC LBD1-3). The positive control is co-transiently transfected with both plasmids, and the negative control contains the pGL4.3 promoter sequence. Assays are assembled in 384 well plates where transiently transfected cells and test compound at varying concentrations are incubated for 20-24 h. The next day, assays plates are taken out and equilibrated at RT for 20-30 minutes. Bright-Glo™ Luciferase Assay System is used to detect Luciferase production. After addition of Bright GLO detection reagent, the plates are incubated at RT for 20 minutes. The plates are read on an Envision plate reader to measure luminescence signal. The RLU signal is converted to POC relative to control and blank wells.
Compound Dilution Buffer:
Bright Glo Luciferase Assay System: Promega #E2620
Thaw lysis buffer provided in kit, add 100 mL lysis buffer to substrate powder.

Row | Structure (SMILES) | HLM (% Qh) [1] | pIC50 (RORγ)
1 | CC[C@@H](C)n1c(=O)c(NCc2ccc(S(=O)(=O)CC)nc2)nc2c(C)nc(-c3c(OC)ncnc3C3CC3)nc21 [Example 3] | <24 % Qh | 7.06
2 | CCS(=N)(=O)c1ccc(CNc2nc3c(C)nc(-c4c(C)ncnc4C4CC4)nc3n([C@@H](C)C(F)(F)F)c2=O)cc1 (single isomer, unassigned) [Example 34b] | <24 % Qh | 6.77
3 | Cc1ncnc(C2CC2)c1-c1nc(C)c2nc(NCc3ccc(S(C)(=O)=O)nc3)c(=O)n([C@@H](C)C3CC3)c2n1 [Example 7] | 33 % Qh | 7.15
4 | Cc1ncnc(C2CC2)c1-c1nc(C)c2nc(NCc3ccc(S(C)(=N)=O)cn3)c(=O)n([C@@H](C)C3CC3)c2n1 (single isomer, unassigned) [Example 43b] | <24 % Qh | 6.40
5 | CCS(=N)(=O)c1ccc(CNc2nc3c(C)nc(-c4c(C)ncnc4C4CC4)nc3n([C@@H](C)C(F)(F)F)c2=O)cc1 (single isomer, unassigned) [Example 34a] | 25 % Qh | 6.68
6 | CCS(=O)(=O)c1ccc(CNc2nc3c(C)nc(-c4c(C)ncnc4C4CC4)nc3n([C@@H](C)CF)c2=O)cn1 [Example 50] | <24 % Qh | 5.57
7 | CC[C@@H](C)n1c(=O)c(NCc2ccc(S(=O)(=O)CC)cn2)nc2c(OC)nc(-c3c(C)ncnc3C3CC3)nc21 [Example 21] | <24 % Qh | 5.72
8 | CC[C@@H](C)n1c(=O)c(NCC2CCN(S(=O)(=O)CC)CC2)nc2c(C)nc(-c3c(C)ncnc3C3CC3)nc21 [Example 24] | 69 % Qh | 6.92
9 | CC[C@H](C)n1c(=O)c(NCc2ccc(S(C)(=O)=O)nc2)nc2c(C)nc(-c3c(C)ncnc3C3CC3)nc21 [Example 12] | <24 % Qh | 6.85
10 | CCS(=O)(=O)c1ccc(CNc2nc3c(C)nc(-c4c(C)ncnc4C4CC4)nc3n([C@@H](C)CF)c2=O)nc1 [Example 48] | <24 % Qh | 5.92
11 | CC[C@@H](C)n1c(=O)c(NCc2ccc(S(C)(=O)=O)cn2)nc2c(C)nc(-c3c(OC)ncnc3C3CC3)nc21 [Example 2] | <24 % Qh | 6.96
12 | CCS(=O)(=O)c1cnc(CNc2nc3c(C)nc(-c4c(C)ncnc4C4CC4)nc3n([C@@H](C)C(F)(F)F)c2=O)nc1 [Example 23] | <24 % Qh | 6.75
13 | Cc1ncnc(C2CC2)c1-c1nc(C)c2nc(NCc3ccc(S(N)(=O)=O)cn3)c(=O)n([C@@H](C)C3CC3)c2n1 [Example 61] | <24 % Qh | 6.73
14 | CC[C@@H](C)n1c(=O)c(NCc2ccc(S(=O)(=O)CC)cn2)nc2c(CO)nc(-c3c(OC)ncnc3C3CC3)nc21 [Example 1] | <24 % Qh | 6.70
15 | CC[C@H](C)n1c(=O)c(NCc2ccc(S(=O)(=O)CC)cn2)nc2c(C)nc(-c3c(OC)ncnc3C3CC3)nc21 [Example 58] | <24 % Qh | 7.15
16 | CCS(=O)(=O)c1cnc(CNc2nc3c(C)nc(-c4c(C)ncnc4C4CC4)nc3n([C@@H](C)C3CC3)c2=O)nc1 [Example 6] | <24 % Qh | 7.06
17 | CC[C@@H](C)n1c(=O)c(NCc2ccc(S(=O)(=O)CC)cn2)nc2c(CO)nc(-c3c(C)ncnc3C3CC3)nc21 [Example 51] | <24 % Qh | 6.64
18 | CC[C@@H](C)n1c(=O)c(NCc2ncc(S(C)(=O)=O)cn2)nc2c(C)nc(-c3c(OC)ncnc3C3CC3)nc21 [Example 56] | <24 % Qh | 5.96
19 | COc1ncnc(C2CC2)c1-c1nc(C)c2nc(NCc3ccc(S(C)(=O)=O)nc3)c(=O)n([C@@H](C)C3CC3)c2n1 [Example 8] | <24 % Qh | 7.12
20 | CC[C@@H](C)n1c(=O)c(NCc2ccc(S(=N)(=O)CC)cc2)nc2c(C)nc(-c3c(C)ncnc3C3CC3)nc21 (single isomer, unassigned) [Example 26b] | 25 % Qh | 6.77

Second part, the compound after the results:

Row | HLM (% Qh) [1] | pIC50 (RORγ) | Structure (SMILES)
21 | <24 % Qh | 6.73 | CC[C@H](C)n1c(=O)c(NCc2ccc(S(N)(=O)=O)cn2)nc2c(C)nc(-c3c(OC)ncnc3C3CC3)nc21 [Example 81]
22 | <24 % Qh | 6.44 | CCS(=N)(=O)c1ccc(CNc2nc3c(C)nc(-c4c(OC)ncnc4C4CC4)nc3n([C@@H](C)C(F)(F)F)c2=O)nc1 (single isomer, unassigned) [Example 101a]
23 | <24 % Qh | 7.02 | CC[C@H](C)n1c(=O)c(NCc2ccc(S(=O)(=O)CC)nc2)nc2c(C)nc(-c3c(C)ncnc3C3CC3)nc21 [Example 64]
24 | <24 % Qh | 5.89 | COc1ncnc(C2CC2)c1-c1nc(C)c2nc(NCc3ccc(S(N)(=O)=O)cn3)c(=O)n(CC(C)C)c2n1 [Example 70]
25 | 33 % Qh | 6.71 | CC[C@H](C)n1c(=O)c(NCc2ccc(S(C)(=N)=O)cc2)nc2c(C)nc(-c3c(C)ncnc3C3CC3)nc21 (stereo partly shown) [Example 84]
26 | <24 % Qh | 6.96 | COc1ncnc(C2CC2)c1-c1nc(C)c2nc(NCc3ccc(S(C)(=N)=O)cc3)c(=O)n([C@@H](C)C3CC3)c2n1 (stereo partly shown) [Example 67]
27 | <24 % Qh | 6.59 | Cc1ncnc(C2CC2)c1-c1nc(C)c2nc(NCc3ccc(S(C)(=N)=O)cc3)c(=O)n([C@@H](C)C(F)(F)F)c2n1 (single isomer, unassigned) [Example 91b]
28 | 25 % Qh | 7.19 | CCS(=O)(=O)c1ccc(CNc2nc3c(C)nc(-c4c(OC)ncnc4C4CC4)nc3n([C@@H](C)C3CC3)c2=O)cn1 [Example 66]
29 | <24 % Qh | 7.00 | CC[C@H](C)n1c(=O)c(NCc2ccc(S(=O)(=O)CC)nc2)nc2c(C)nc(-c3c(OC)ncnc3C3CC3)nc21 [Example 63]
30 | <24 % Qh | 5.89 | Cc1ncnc(C2CC2)c1-c1nc(C)c2nc(NCc3ccc(S(C)(=N)=O)cn3)c(=O)n([C@@H](C)C(F)(F)F)c2n1 (single isomer, unassigned) [Example 106a]
31 | <24 % Qh | 6.55 | Cc1ncnc(C2CC2)c1-c1nc(C)c2nc(NCc3ccc(S(N)(=O)=O)cn3)c(=O)n([C@@H](C)C(F)(F)F)c2n1 [Example 96]
32 | <24 % Qh | 6.53 | Cc1ncnc(C2CC2)c1-c1nc(C)c2nc(NCc3ccc(S(C)(=N)=O)cc3)c(=O)n([C@@H](C)C(F)(F)F)c2n1 (single isomer, unassigned) [Example 91a]
33 | <24 % Qh | 6.87 | CC[C@@H](C)n1c(=O)c(NCc2ccc(S(=O)(=O)CC)cn2)nc2c(C)nc(-c3c(C)ncnc3C3CC3)nc21 [Example 65]
34 | <24 % Qh | – | CCS(=O)(=O)c1ccc(CNc2nc3c(C)nc(-c4c(C)ncnc4C4CC4)nc3n([C@@H](C)C3CC3)c2=O)nc1 [Example 68]
